Key:
Format in all cases: in vivo
[1] = Acute toxicity in the rat (LD50, Litchfield and Wilcoxon); conditions: in vivo, 7 days observation
Experimental: (§1) The acute toxicity of the proucts was studied on male and female adult mice of Swiss stock, and on male and female adult rats of Sprague-Dawley stock, by oral and subcutaneous administration. For each method of administration, the tested doses were administered in geometrical progression to 10 animals (5 males and 5 females). After treatment, the animals were kept under observation for 7 days. On termination of this period, the LD50 and the relative confidence limits were calculated by the Litchfield and Wilcoxon method (Pharmacol. Exp. Ther. 96-99, 1949).

[2] = Acute toxicity in the mouse (LD50, Litchfield and Wilcoxon); conditions: in vivo, 7 days observation
Experimental: as §1

[3] = test system: rats of Sprague-Dawley stock; test: Acute toxicity in the rat (LD50, Litchfield and Wilcoxon); conditions: 7 days observation
Experimental: as §1

mice of Swiss stock = test: Acute toxicity in the mouse (LD50, Litchfield and Wilcoxon); conditions: 7 days observation
Experimental: as §1

Compound	LD50 at 168 h ([1]; oral) [mg/kg]	LD50 at 168 h ([1]; sc, subcutaneous) [mg/kg]	LD50 at 168 h ([2]; oral) [mg/kg]	LD50 at 168 h ([2]; sc, subcutaneous) [mg/kg]	LD50 ([3]; oral) [mg/kg]	LD50 ([3]; subcutaneous) [mg/kg]	LD50 (mice of Swiss stock; oral) [mg/kg]	LD50 (mice of Swiss stock; subcutaneous) [mg/kg]
CC(=O)Oc1ccccc1C(=O)N[C@@H](CSCC(=O)O)C(=O)O [MSF 01, S-(carboxymethyl)-N-(2-acetoxybenzoyl)-L-cysteine]	4800	4500	4800	4500	–	–	–	–
S-(carboxymethyl)-L-cysteine acetylsalicylanhydride [MSF 02]	–	–	–	–	4800	4500	4600	4400
CC(=O)Oc1ccccc1C(=O)OC(=O)CSC[C@H](N)C(=O)OC(=O)c1ccccc1OC(C)=O [MSF 03, S-carboxymethylcysteine bis-acetylsalicylanhydride]	4500	4200	4300	4100	–	–	–	–
